Values of other authors as cited in patent US20100047788A1, “METHOD AND KIT FOR DIAGNOSIS AND MONITORING OF THE TREATMENT OF CHRONIC TRIPANOSSOMIASIS AND CHAGAS DISEASE” (FUNDACÃO UNIVERSIDADE DE BRASÍLIA CDTCAMPUS UNIVER, priority 2006, published 2010).

Tested on: LINE-1
Details: background statement; taken as indication of non occurrence of the kDNA integration

Cc1cn([C@H]2C[C@H](N=[N+]=[N-])[C@@H](CO)O2)c(=O)[nH]c1=O [AZT]
effect on retrotransposition of LINE-1: prevented the retrotransposition of LINE-1
